Where two headings read alike, the source gives them in different places.

For data set [1] the following is noted: cited from earlier work.
Data set [2] in a line: Dissolution of lomustine in aqueous cyclodextrin solution (solubility). It is filed as physicochemical. An excerpt:
However, they made an unexpected discovery that a methyl-β-CD (methyl-β-cyclodextrin) solution was able to dissolve lomustine crystals to the aqueous phase within a few seconds. They determined that the mechanism of this process is mostly related to co-dissolution rather than the formation of an inclusion complex as is often the case. In this respect, the formation of an inclusion complex usually takes from a few to several hours and requires constant mixing, heating and the use of a co-solvent such as ethanol or methanol.
The present invention provides a method of preparing a liposomal form of lomustine by (i) producing its aqueous solution of high concentration and (ii) then encapsulating it in the aqueous space of liposomes. Thanks to the use of selected cyclodextrins it is possible to obtain a high concentration of lomustine in water of ~20 mg / ml. The normal concentration of lomustine is not more than 0.11 mg/ml when no additives are used. This method makes it possible to encapsulate lomustine in the water space of liposomes in the form of its solution in water or/and inclusion complex with cyclodextrins, or to obtain the effect of co-dissolving lomustine and cyclodextrin in an aqueous solution. The main advantage of this solution is to limit the crystallization and escape of the drug from the liposomes by transferring it to an aqueous solution using not organic solvents such as ethanol, but various organic substances that can be administered intravenously without harming the patient and not damaging the liposomes as is the case with high concentrations of ethanol needed to obtain a high concentration of lomustine in water.
For this reason, they were looking for a way to effectively encapsulate the drug in the aqueous space of liposomes as a real solution. While searching for substances that could potentially enable the transfer of lomustine from its crystals to the aqueous phase, inventors unexpectedly discovered that a methyl-β-CD solution dissolved lomustine within a few seconds. […]

For data set [3] the following is noted: in water, no additives used; cited from earlier work.

For `O=NN(CCCl)C(=O)NC1CCCCC1` [lomustine], the “metabolites remaining in the body” value in data set [1] (5 days after administration) is 15-20%. Besides, in data set [1] (after oral administration), the “time until active metabolites appear in substantial concentrations in CSF” value is no more than 30 min. In addition, in data set [1] (in vivo), the “concentration of metabolites in the cerebrospinal fluid relative to plasma” value is listed as 150%, the “cyclohexyl moiety of lomustine bound to plasma proteins” value is given as “About 600” and the “second phase plasma half-life” value is 24 to 48 h. Also, in data set [1] (oral, parent drug), the “detection of lomustine in cerebral spinal fluid (CSF)” value is “not detectable”. In data set [1] (orally administered), the bioavailability entry was “very low”. Besides, in data set [1] (throughout the body), the biotransformation half-life result is “less than 1 hour”. The “dose of the drug excreted as metabolites in the urine” value in data set [1] (within 24 hours) is reported as “about half”. Further, the “dose of the drug excreted as metabolites in the urine” value in data set [1] (within 4 days) is on record as “less than 75%”. In data set [2] (25% methyl-β-CD solution, room temperature (R.T.)), the “concentration of lomustine in solution” value is on record as “at least 20 mg/ml”. In addition, the “time for dissolution of lomustine crystals to the aqueous phase” value in data set [2] (methyl-β-CD solution, room temperature) is on record as “a few seconds”. The “concentration of lomustine in water” value in data set [2] (with selected cyclodextrins) was ~ 20 mg / ml. Further, the “normal concentration of lomustine” value in data set [3] is recorded as “not more than 0.11 mg/ml”.

Values taken from patent EP4529915A1, “LIPOSOMAL PREPARATIONS FOR USE IN TREATING CANCER” (DG-Nika AG, priority 2023, dated 2025).
